From patent US20050060772A1, “Regulation of ethylene sensitivity during leaf and flower abscission” (priority 2001, published 2005)
Entries after “also recorded” stand apart in the source; their conditions may differ.

Legend:
TCTR1 antisense plants = test: Inducible leaf abscission in TCTR1 antisense tomato plants; conditions: for rate of leaf abscission compared with EIN3 over-expressing plants: CTR1/TCTR1 antisense plants; for induction of leaf abscission: TCTR1 antisense under the three inducible promoters
[1] = tested on: transgenic tomato flowers (EIN2 over-expression / co-suppression); conditions: transgenic flowers treated with ethylene (FIG. 1: 10 ppm, 16 hrs)
Procedure: (§1) Flower clusters were cut from the plant, placed in a vial of water, and treated with 10 ppm ethylene for 16 hrs.
(§2) Preliminary work was conducted in tomato to test the efficacy of these approaches.

wild-type tomato flowers = conditions: wild-type flowers treated with ethylene (FIG. 1: 10 ppm, 16 hrs)
Procedure: as §1, §2

| SMILES | rate of leaf abscission compared with EIN3 over-expressing plants (TCTR1 antisense plants) | induction of leaf abscission (TCTR1 antisense plants) | time flowers remained attached to the pedicel after treatment [1] | time to flower abscission after treatment (wild-type tomato flowers) [h] |
| --- | --- | --- | --- | --- |
| CC(C)CC[C@@H](O)[C@](C)(O)[C@H]1CC[C@@]2(O)C3=CC(=O)[C@]4(O)C[C@@H](O)[C@@H](O)C[C@]4(C)[C@H]3[C@H](O)C[C@]12C [muristeroneA] | less rapid; also recorded: not as rapid | induced leaf abscission | – | – |
| CCO [ethanol] | less rapid; also recorded: not as rapid | induced leaf abscission | – | – |
| C=C [ethylene] | – | – | at least 5 days | 24 |
